Results from patent US20180186742A1, “PICOLINAMIDES AS FUNGICIDES” (Dow AgroSciences LLC, priority 2017, published 2018).
Read-outs that look alike come from different tables or passages of the source.

Legend:
Zymoseptoria tritici = test: Leaf blotch of wheat (SEPTTR), disease control on wheat seedlings; type: in vivo; details: high volume application at 100 ppm
Description: Technical grades of materials were dissolved in acetone, which were then mixed with nine volumes of water containing 110 ppm Triton X-100. The fungicide solutions were applied onto wheat seedlings using an automated booth sprayer to run-off. All sprayed plants were allowed to air dry prior to further handling. All fungicides were evaluated using the aforementioned method for their activity vs. all target diseases, unless stated otherwise. Wheat leaf blotch and brown rust activity were also evaluated using track spray applications, in which case the fungicides were formulated as EC formulations, containing 0.1% Trycol 5941 in the spray solutions. Wheat plants (variety Yuma) were grown from seed in a greenhouse in 50% mineral soil/50% soil-less Metro mix until the first leaf was fully emerged, with 7-10 seedlings per pot. These plants were inoculated with an aqueous spore suspension of Zymoseptoria tritici either prior to or after fungicide treatments. After inoculation the plants were kept in 100% relative humidity (one day in a dark dew chamber followed by two to three days in a lighted dew chamber at 20° C.) to permit spores to germinate and infect the leaf. The plants were then transferred to a greenhouse set at 20° C. for disease to develop. When disease symptoms were fully expressed on the 1st leaves of untreated plants, infection levels were assessed on a scale of 0 to 100 percent disease severity. Percent disease control was calculated using the ratio of disease severity on treated plants relative to untreated plants.

Puccinia triticina = test: Wheat brown rust (PUCCRT), disease control on wheat seedlings; type: in vivo; details: high volume application at 100 ppm
Description: Technical grades of materials were dissolved in acetone, which were then mixed with nine volumes of water containing 110 ppm Triton X-100. The fungicide solutions were applied onto wheat seedlings using an automated booth sprayer to run-off. All sprayed plants were allowed to air dry prior to further handling. All fungicides were evaluated using the aforementioned method for their activity vs. all target diseases, unless stated otherwise. Wheat leaf blotch and brown rust activity were also evaluated using track spray applications, in which case the fungicides were formulated as EC formulations, containing 0.1% Trycol 5941 in the spray solutions. Wheat plants (variety Yuma) were grown from seed in a greenhouse in 50% mineral soil/50% soil-less Metro mix until the first leaf was fully emerged, with 7-10 seedlings per pot. These plants were inoculated with an aqueous spore suspension of Puccinia triticina either prior to or after fungicide treatments. After inoculation the plants were kept in a dark dew room at 22° C. with 100% relative humidity overnight to permit spores to germinate and infect the leaf. The plants were then transferred to a greenhouse set at 24° C. for disease to develop. Fungicide formulation, application and disease assessment followed the procedures as described in the Example A.

[1] = 24 h, 1 Day Protectant, read-out: SEPTTR disease control, 1DP, HV activity
[2] = 72 h, 3 Day Curative, read-out: SEPTTR disease control, 3DC, HV activity
[3] = 24 h, 1 Day Protectant, read-out: PUCCRT disease control, 1DP, HV activity
[4] = 72 h, 3 Day Curative, read-out: PUCCRT disease control, 3DC, HV activity

Row | Compound | pest or weed control at 100 ppm (Zymoseptoria tritici; [1]) | pest or weed control at 100 ppm (Zymoseptoria tritici; [2]) | pest or weed control at 100 ppm (Puccinia triticina; [3]) | pest or weed control at 100 ppm (Puccinia triticina; [4])
1 | COc1ccnc(C(=O)N[C@@H](C)C(=O)O[C@@H](C)[C@@H](c2ccccc2)C(C)C)c1O [Compound 105] | < 80% | < 80% | > 80% | < 0%
2 | COc1ccnc(C(=O)N[C@@H](C)C(=O)O[C@@H](C)[C@@H](c2ccccc2)C2CCCC2)c1O [Compound 106] | < 0% | < 0% | < 80% | < 0%
3 | CCC(CC)[C@@H](c1ccccc1)C(C)OC(=O)[C@H](C)NC(=O)c1nccc(OC)c1O (stereo partly shown) [Compound 112] | > 80% | > 80% | > 80% | > 80%
4 | COc1ccnc(C(=O)N[C@@H](C)C(=O)OC(C)[C@H](c2ccccc2)C2CCCC2)c1O (stereo partly shown) [Compound 113] | > 80% | > 80% | > 80% | > 80%
5 | COc1ccnc(C(=S)N[C@@H](C)C(=O)OC(C)[C@H](c2ccccc2)C2CCCC2)c1O (stereo partly shown) [Compound 114] | > 80% | < 80% | > 80% | < 80%
6 | COc1ccnc(C(=S)N[C@@H](C)C(=O)O[C@@H](C)[C@@H](c2ccccc2)C2CCCC2)c1O [Compound 115] | < 80% | < 0% | < 0% | < 0%
7 | COc1ccnc(C(=O)N[C@@H](C)C(=O)O[C@@H](C)[C@@H](c2ccc(F)cc2C)C(C)C)c1O [Compound 116] | < 0% | < 80% | > 80% | < 0%
8 | CCC(CC)[C@H](c1ccc(F)cc1C)[C@H](C)OC(=O)[C@H](C)NC(=O)c1nccc(OC)c1O [Compound 117] | > 80% | > 80% | > 80% | < 0%
9 | COc1ccnc(C(=O)N[C@@H](C)C(=O)O[C@@H](C)[C@@H](c2ccc(F)cc2C)C2CCCC2)c1O [Compound 118] | < 80% | < 80% | > 80% | < 80%
10 | COc1ccnc(C(=O)N[C@@H](C)C(=O)O[C@@H](C)[C@@H](c2ccc(F)cc2C)C2CCCCC2)c1O [Compound 119] | > 80% | > 80% | > 80% | < 80%
11 | CCC(C)[C@H](c1ccc(F)cc1C)[C@H](C)OC(=O)[C@H](C)NC(=O)c1nccc(OC)c1O (stereo partly shown) [Compound 120] | < 0% | < 80% | > 80% | < 0%
12 | COc1ccnc(C(=O)N[C@@H](C)C(=O)O[C@@H](C)[C@@H](c2ccc(F)cc2C)C2CCC2)c1O [Compound 121] | < 80% | > 80% | > 80% | < 80%
13 | COc1ccnc(C(=O)N[C@@H](C)C(=O)O[C@@H](C)[C@H](c2ccc(F)cc2C)C2CCCC2)c1O [Compound 122] | > 80% | < 80% | > 80% | > 80%
14 | COc1ccnc(C(=O)N[C@@H](C)C(=O)O[C@@H](C)[C@H](c2ccc(F)cc2C)C2CCCCC2)c1O [Compound 123] | > 80% | > 80% | > 80% | > 80%
15 | COc1ccnc(C(=O)N[C@@H](C)C(=O)O[C@@H](C)[C@H](c2ccc(F)cc2C)C(C)C)c1O [Compound 124] | > 80% | > 80% | > 80% | > 80%
16 | CCC(CC)[C@@H](c1ccc(F)cc1C)[C@H](C)OC(=O)[C@H](C)NC(=O)c1nccc(OC)c1O [Compound 125] | > 80% | > 80% | > 80% | < 80%

Row | Compound | pest or weed control at 100 ppm (Zymoseptoria tritici; [1]) | pest or weed control at 100 ppm (Zymoseptoria tritici; [2]) | pest or weed control at 100 ppm (Puccinia triticina; [3]) | pest or weed control at 100 ppm (Puccinia triticina; [4])
17 | CCC(C)[C@@H](c1ccc(F)cc1C)[C@H](C)OC(=O)[C@H](C)NC(=O)c1nccc(OC)c1O (stereo partly shown) [Compound 126] | > 80% | > 80% | > 80% | < 80%
18 | COc1ccnc(C(=O)N[C@@H](C)C(=O)O[C@@H](C)[C@H](c2ccc(F)cc2C)C2CCC2)c1O [Compound 127] | > 80% | < 80% | > 80% | > 80%
19 | COc1ccnc(C(=O)N[C@@H](C)C(=O)O[C@H](C)[C@H](c2ccc(F)cc2C)C2CCCC2)c1O [Compound 128] | < 0% | < 80% | < 80% | < 0%
20 | COc1ccnc(C(=O)N[C@@H](C)C(=O)O[C@H](C)[C@H](c2ccc(F)cc2C)C2CCCCC2)c1O [Compound 129] | > 80% | < 80% | > 80% | < 0%
21 | COc1ccnc(C(=O)N[C@@H](C)C(=O)O[C@H](C)[C@H](c2ccc(F)cc2C)C(C)C)c1O [Compound 130] | < 80% | < 80% | > 80% | < 80%
22 | COc1ccnc(C(=O)N[C@@H](C)C(=O)O[C@@H](C)[C@@H](c2ccc(C)cc2C)C(C)C)c1O [Compound 131] | < 80% | < 80% | > 80% | > 80%
23 | COc1ccnc(C(=O)N[C@@H](C)C(=O)O[C@@H](C)[C@@H](c2ccc(C)cc2C)C2CCCC2)c1O [Compound 132] | > 80% | < 80% | > 80% | > 80%
24 | COc1ccnc(C(=O)N[C@@H](C)C(=O)O[C@@H](C)[C@@H](c2ccc(C)cc2C)C2CCCCC2)c1O [Compound 133] | > 80% | < 80% | > 80% | < 80%
25 | CCC(C)[C@H](c1ccc(C)cc1C)[C@H](C)OC(=O)[C@H](C)NC(=O)c1nccc(OC)c1O (stereo partly shown) [Compound 134] | < 80% | < 80% | < 80% | < 80%
26 | COc1ccnc(C(=O)N[C@@H](C)C(=O)O[C@@H](C)[C@H](c2ccc(F)cc2)C(C)C)c1O [Compound 135] | < 80% | > 80% | < 80% | > 80%
27 | COc1ccnc(C(=S)N[C@@H](C)C(=O)O[C@@H](C)[C@H](c2ccc(F)cc2C)C(C)C)c1O [Compound 136] | > 80% | > 80% | > 80% | > 80%
28 | COc1cc(F)ccc1[C@@H](C(C)C)[C@H](C)OC(=O)[C@H](C)NC(=O)c1nccc(OC)c1O [Compound 138] | < 0% | < 0% | > 80% | > 80%
29 | COc1cc(F)ccc1[C@@H](C1CCCCC1)[C@H](C)OC(=O)[C@H](C)NC(=O)c1nccc(OC)c1O [Compound 139] | > 80% | < 0% | > 80% | < 80%
30 | COc1cc(F)ccc1[C@@H](C1CCCC1)[C@H](C)OC(=O)[C@H](C)NC(=O)c1nccc(OC)c1O [Compound 140] | < 0% | < 80% | > 80% | > 80%
31 | CCC(C)[C@H](c1ccc(F)cc1OC)[C@H](C)OC(=O)[C@H](C)NC(=O)c1nccc(OC)c1O (stereo partly shown) [Compound 141] | < 0% | > 80% | < 80% | > 80%
